Patent US20250115563A1, “MODULATORS OF THE INTEGRATED STRESS PATHWAY” (Calico Life Sciences LLC, priority 2017, published 2025)

The compounds below were run on HEK293T cells carrying the ATF4 luciferase reporter (assay: ATF4-Luc assay (in vitro model of VWMD)). Conditions: Homo sapiens, HEK-293T; HEK293T cells with ATF4 5'-UTR firefly luciferase reporter; 1 μg/mL tunicamycin; 7 hours; One Glo luminescence.
Type: cell-based
Protocol: In order to test exemplary compounds of the invention in a cellular context, a stable VWMD cell line was first constructed. The ATF4 reporter was prepared by fusing the human full-length ATF4 5′-UTR (NCBI Accession No. BC022088.2) in front of the firefly luciferase (FLuc) coding sequence lacking the initiator methionine as described in Sidrauski et al (eLife 2013). The construct was used to produce recombinant retroviruses using standard methods and the resulting viral supernatant was used to transduce HEK293T cells, which were then subsequently selected with puromycin to generate a stable cell line.
HEK293T cells carrying the ATF4 luciferase reporter were plated on polylysine coated 384-well plates (Greiner Bio-one) at 30,000 cells per well. Cells were treated the next day with 1 μg/mL tunicamycin and 200 nM of a compound of Formula (I) for 7 hours. Luminescence was measured using One Glo (Promega) as specified by the manufacturer. Cells were maintained in DMEM with L-glutamine supplemented with 10% heat-inactivated FBS (Gibco) and Antibiotic-Antimycotic solution (Gibco).
Table 2 below summarizes the EC50 data obtained using the ATF4-Luc assay for exemplary compounds of the invention.

| SMILES | EC50 [nM] |
| --- | --- |
| O=C(COc1ccc(Cl)c(F)c1)NC12CCC(c3nnc(Oc4ccc(Cl)c(F)c4)o3)(CC1)C(O)C2 (stereo not drawn) [Compound 170, 2-(4-chloro-3-fluorophenoxy)-N-{4-[5-(4-chloro-3-fluorophenoxy)-1,3,4-oxadiazol-2-yl]-3-hydroxybicyclo[2.2.2]octan-1-yl}acetamide] | < 50 |
| O=C(COc1ccc(Cl)c(F)c1)NC12CCC(c3nnc(Oc4ccc(Cl)c(F)c4)o3)(CC1)[C@H](O)C2 [Compound 171, 2-(4-chloro-3-fluorophenoxy)-N-{(3R)-4-[5-(4-chloro-3-fluorophenoxy)-1,3,4-oxadiazol-2-yl]-3-hydroxybicyclo[2.2.2]octan-1-yl}acetamide] | < 50 |
| O=C(COc1ccc(Cl)c(F)c1)NC12CCC(c3nnc(Oc4ccc(Cl)c(F)c4)o3)(CC1)[C@@H](O)C2 [Compound 172, 2-(4-chloro-3-fluorophenoxy)-N-{(3S)-4-[5-(4-chloro-3-fluorophenoxy)-1,3,4-oxadiazol-2-yl]-3-hydroxybicyclo[2.2.2]octan-1-yl}acetamide] | < 50 |
